Reference: ChEMBL document CHEMBL1131883, “Synthesis and evaluation of benzoxazinones as HIV-1 reverse transcriptase inhibitors. Analogs of Efavirenz (SUSTIVA)” (Bioorg Med Chem Lett, 1999)

How the values were obtained:
[1] = target: Human immunodeficiency virus type 1 reverse transcriptase (Human immunodeficiency virus 1, UniProt Q72547); experiment: Inhibitory activity against HIV-1 reverse transcriptase
[2] = target: Human immunodeficiency virus type 1 reverse transcriptase (Human immunodeficiency virus 1) (UniProt Q72547)

Q: For `CC(=O)Nc1ccc2c(c1)C(C#CC1CC1)(C(F)(F)F)OC(=O)N2` (stereo not given), which IC50 [1] is on record?
A: > 2000 nM

Q: And the IC90 [2]?
A: 296 nM

Q: How did the IC50 [1] turn out when `CNc1ccc2c(c1)C(C#CC(C)C)(C(F)(F)F)OC(=O)N2` (stereo not given) was run?
A: 473 nM

Q: And the IC90 [2]?
A: 10.2 nM

Q: What does the source list for `Nc1ccc2c(c1)C(C#CC1CC1)(C(F)(F)F)OC(=O)N2` (stereo not given)?
A: IC50 [1]: 802 nM; IC90 [2]: 20.6 nM

Q: With `CC(C)C#CC1(C(F)(F)F)OC(=O)Nc2ccc([N+](=O)[O-])cc21` (stereo not given) as the compound, how does the IC50 [1] read?
A: 199 nM

Q: What about the IC90 [2] of the same compound?
A: 3.35 nM

Q: How did the IC50 [1] turn out when `O=C1Nc2ccc([N+](=O)[O-])cc2C(C#CC2CC2)(C(F)(F)F)O1` (stereo not given) was run?
A: 209 nM

Q: What about the IC90 [2] of the same compound?
A: 0.83 nM

Q: How did the IC50 [1] turn out when `O=C1Nc2cccc(F)c2C(C#CC2CC2)(C(F)(F)F)O1` (stereo not given) was run?
A: 78 nM

Q: And the IC90 [2]?
A: 4.34 nM

Q: Which IC50 [1] does the source give for `CCCC#CC1(C(F)(F)F)OC(=O)Nc2ccc(N)cc21` (stereo not given) here?
A: 1510 nM

Q: And the IC90 [2]?
A: 33.5 nM

Q: With `CCCC#CC1(C(F)(F)F)OC(=O)Nc2ccc([N+](=O)[O-])cc21` (stereo not given) as the compound, how does the IC50 [1] read?
A: 304 nM

Q: What about the IC90 [2] of the same compound?
A: 4.57 nM

Q: With `CCC#CC1(C(F)(F)F)OC(=O)Nc2cccc(F)c21` (stereo not given) as the compound, how does the IC50 [1] read?
A: 127 nM

Q: And the IC90 [2]?
A: 4.18 nM

Q: What does the source list for `CCC#CC1(C(F)(F)F)OC(=O)Nc2ccc([N+](=O)[O-])cc21` (stereo not given)?
A: IC50 [1]: 276 nM; IC90 [2]: 2.23 nM

Q: `CC(=O)Nc1ccc2c(c1)C(C#CC(C)C)(C(F)(F)F)OC(=O)N2` (stereo not given) was tested. Which IC50 [1] did it give?
A: > 2000 nM

Q: What about the IC90 [2] of the same compound?
A: 500 nM

Q: How did the IC50 [1] turn out when `CCC#CC1(C(F)(F)F)OC(=O)Nc2ccc(N)cc21` (stereo not given) was run?
A: 1890 nM

Q: And the IC90 [2]?
A: 45.7 nM

Q: With `CCCC#CC1(C(F)(F)F)OC(=O)Nc2cccc(F)c21` (stereo not given) as the compound, how does the IC50 [1] read?
A: 156 nM

Q: What about the IC90 [2] of the same compound?
A: 5.64 nM

Q: With `CNc1ccc2c(c1)C(C#CC1CC1)(C(F)(F)F)OC(=O)N2` (stereo not given) as the compound, how does the IC50 [1] read?
A: 608 nM

Q: What about the IC90 [2] of the same compound?
A: 9.02 nM

Q: How did the IC50 [1] turn out when `CC(C)C#CC1(C(F)(F)F)OC(=O)Nc2ccc(N)cc21` (stereo not given) was run?
A: 896 nM

Q: What about the IC90 [2] of the same compound?
A: 27.5 nM
